From patent publication US20230212122A1, “MITOCHONDRIAL TARGETING COMPOUNDS FOR THE TREATMENT OF ASSOCIATED DISEASES” (The Regents of the University of Michigan, priority 2020, published 2023)

Tested on: UM16 cell line
Test: GSEA of proteomics data ([…], KEGG pathways)
Assay type: cell-based
Conditions: for ES / NES: 5 μM, 24 hours
Source text: Several proteins participating in energy metabolism were dramatically changed.

[1] = HALLMARK_ADIPOGENESIS, FDR q-val 0.644
[2] = HALLMARK_ALLOGRAFT_REJECTION, FDR q-val 0.521
[3] = HALLMARK_ANDROGEN_RESPONSE, FDR q-val 0.915
[4] = HALLMARK_APOPTOSIS, FDR q-val 0.666
[5] = HALLMARK_BILE_ACID_METABOLISM, FDR q-val 0.245
[6] = HALLMARK_CHOLESTEROL_HOMEOSTASIS, FDR q-val 0.314
[7] = HALLMARK_COAGULATION, FDR q-val 0.004
[8] = HALLMARK_COMPLEMENT, FDR q-val 0.425
[9] = HALLMARK_DNA_REPAIR, FDR q-val 0.454
[10] = HALLMARK_E2F_TARGETS, FDR q-val 0.077
[11] = HALLMARK_EPITHELIAL_MESENCHYMAL_TRANSITION, FDR q-val 0.456
[12] = HALLMARK_G2M_CHECKPOINT, FDR q-val 0.107
[13] = HALLMARK_GLYCOLYSIS, FDR q-val 0.489
[14] = HALLMARK_HEME_METABOLISM, FDR q-val 0.552
[15] = HALLMARK_HYPOXIA, FDR q-val 0.003
[16] = HALLMARK_IL2_STAT5_SIGNALING, FDR q-val 0.552
[17] = HALLMARK_MITOTIC_SPINDLE, FDR q-val 0.529
[18] = HALLMARK_MYC_TARGETS_V1, FDR q-val 0.006
[19] = HALLMARK_MYC_TARGETS_V2, FDR q-val 0.264
[20] = HALLMARK_MYOGENESIS, FDR q-val 0.467
[21] = HALLMARK_OXIDATIVE_PHOSPHORYLATION, FDR q-val 0.711
[22] = HALLMARK_P53_PATHWAY, FDR q-val 0.146
[23] = HALLMARK_PEROXISOME, FDR q-val 0.645
[24] = HALLMARK_PROTEIN_SECRETION, FDR q-val 0.862
[25] = HALLMARK_SPERMATOGENESIS, FDR q-val 0.851
[26] = HALLMARK_TGF_BETA_SIGNALING, FDR q-val 0.771
[27] = HALLMARK_TNFA_SIGNALING_VIA_NFKB, FDR q-val 0.457
[28] = HALLMARK_UNFOLDED_PROTEIN_RESPONSE, FDR q-val 0.070
[29] = HALLMARK_UV_RESPONSE_DN, FDR q-val 0.510
[30] = HALLMARK_XENOBIOTIC_METABOLISM, FDR q-val 0.488
[31] = KEGG_ADIPOCYTOKINE_SIGNALING_PATHWAY, FDR q-val 0.903
[32] = KEGG_ARGININE_AND_PROLINE_METABOLISM, FDR q-val 0.668
[33] = KEGG_B_CELL_RECEPTOR_SIGNALING_PATHWAY, FDR q-val 0.813
[34] = KEGG_CARDIAC_MUSCLE_CONTRACTION, FDR q-val 0.900
[35] = KEGG_CYTOSOLIC_DNA_SENSING_PATHWAY, FDR q-val 0.907
[36] = KEGG_FC_EPSILON_RI_SIGNALING_PATHWAY, FDR q-val 0.825
[37] = KEGG_GAP_JUNCTION, FDR q-val 0.898
[38] = KEGG_GLYCEROLIPID_METABOLISM, FDR q-val 0.663
[39] = KEGG_GLYCOLYSIS_GLUCONEOGENESIS, FDR q-val 0.889
[40] = KEGG_INOSITOL_PHOSPHATE_METABOLISM, FDR q-val 0.852
[41] = KEGG_INSULIN_SIGNALING_PATHWAY, FDR q-val 0.872
[42] = KEGG_LYSINE_DEGRADATION, FDR q-val 0.914
[43] = KEGG_MELANOGENESIS, FDR q-val 0.638
[44] = KEGG_NON_SMALL_CELL_LUNG_CANCER, FDR q-val 0.894
[45] = KEGG_NUCLEOTIDE_EXCISION_REPAIR, FDR q-val 0.829
[46] = KEGG_PATHWAYS_IN_CANCER, FDR q-val 0.858
[47] = KEGG_PEROXISOME, FDR q-val 0.839
[48] = KEGG_PROP_ANOATE_METABOLISM, FDR q-val 0.889
[49] = KEGG_PURINE_METABOLISM, FDR q-val 0.909
[50] = KEGG_VIRAL_MYOCARDITIS, FDR q-val 0.832

Question: For CCOC(=O)[C@@H]1CCCN(S(=O)(=O)c2ccc(S(=O)(=O)N(CC)CC)cc2)C1 [DX2-201, ethyl (R)-1-((4-(N,N-diethylsulfamoyl)phenyl)sulfonyl)piperidine-3-carboxylate], which “TCA cycle (proteomic results)” value is on record?
Answer: suppressed

Question: And the “hypoxia pathways, bile acid metabolism, cholesterol homoeostasis and glycolysis (proteomic results)” value?
Answer: upregulated

Question: What about the ES [1] of the same molecule?
Answer: 0.317

Question: And the NES [1]?
Answer: 1.025

Question: What about the ES [2] of the same molecule?
Answer: −0.287

Question: What about the NES [2] of the same molecule?
Answer: −1.082

Question: What about the ES [3] of the same molecule?
Answer: 0.259

Question: And the NES [3]?
Answer: 0.760

Question: What about the ES [4] of the same molecule?
Answer: 0.335

Question: What about the NES [4] of the same molecule?
Answer: 1.042

Question: What about the ES [5] of the same molecule?
Answer: 0.523

Question: What about the NES [5] of the same molecule?
Answer: 1.465

Question: And the ES [6]?
Answer: 0.493

Question: And the NES [6]?
Answer: 1.407

Question: And the ES [7]?
Answer: 0.636

Question: What about the NES [7] of the same molecule?
Answer: 1.813

Question: And the ES [8]?
Answer: 0.401

Question: What about the NES [8] of the same molecule?
Answer: 1.235

Question: What about the ES [9] of the same molecule?
Answer: 0.381

Question: What about the NES [9] of the same molecule?
Answer: 1.239

Question: What about the ES [10] of the same molecule?
Answer: −0.349

Question: What about the NES [10] of the same molecule?
Answer: −1.559

Question: And the ES [11]?
Answer: 0.449

Question: What about the NES [11] of the same molecule?
Answer: 1.312

Question: And the NES (HALLMARK_ESTROGEN_RESPONSE_EARLY, FDR q-val 0.813)?
Answer: 0.929

Question: What about the ES [12] of the same molecule?
Answer: −0.313

Question: And the NES [12]?
Answer: −1.421

Question: And the ES [13]?
Answer: 0.399

Question: And the NES [13]?
Answer: 1.281

Question: And the ES [14]?
Answer: 0.376

Question: And the NES [14]?
Answer: 1.150

Question: And the ES [15]?
Answer: 0.595

Question: What about the NES [15] of the same molecule?
Answer: 1.851

Question: And the ES [16]?
Answer: 0.384

Question: And the NES [16]?
Answer: 1.176

Question: And the ES [17]?
Answer: 0.348

Question: And the NES [17]?
Answer: 1.170

Question: And the ES [18]?
Answer: −0.424

Question: What about the NES [18] of the same molecule?
Answer: −1.975

Question: What about the ES [19] of the same molecule?
Answer: −0.329

Question: And the NES [19]?
Answer: −1.215

Question: And the ES [20]?
Answer: −0.285

Question: What about the NES [20] of the same molecule?
Answer: −1.077

Question: And the ES [21]?
Answer: −0.214

Question: And the NES [21]?
Answer: −0.938

Question: And the ES [22]?
Answer: −0.323

Question: What about the NES [22] of the same molecule?
Answer: −1.338

Question: And the ES [23]?
Answer: 0.347

Question: What about the NES [23] of the same molecule?
Answer: 1.037

Question: And the ES [24]?
Answer: −0.207

Question: And the NES [24]?
Answer: −0.842

Question: What about the ES [25] of the same molecule?
Answer: −0.229

Question: And the NES [25]?
Answer: −0.803

Question: What about the ES [26] of the same molecule?
Answer: −0.296

Question: And the NES [26]?
Answer: −0.944

Question: And the ES [27]?
Answer: 0.448

Question: And the NES [27]?
Answer: 1.335

Question: What about the ES [28] of the same molecule?
Answer: −0.372

Question: What about the NES [28] of the same molecule?
Answer: −1.517

Question: And the ES [29]?
Answer: 0.433

Question: And the NES [29]?
Answer: 1.256

Question: And the ES [30]?
Answer: 0.393

Question: And the NES [30]?
Answer: 1.244

Question: What about the ES [31] of the same molecule?
Answer: 0.390

Question: And the NES [31]?
Answer: 1.046

Question: What about the NES (KEGG_ANTIGEN_PROCESSING_AND_PRESENTATION, FDR q-val 0.792) of the same molecule?
Answer: −0.917

Question: And the ES [32]?
Answer: 0.543

Question: And the NES [32]?
Answer: 1.389

Question: And the NES (KEGG_BASAL_TRANSCRIPTION_FACTORS, FDR q-val 0.687)?
Answer: −1.121

Question: What about the ES [33] of the same molecule?
Answer: 0.504

Question: What about the NES [33] of the same molecule?
Answer: 1.432

Question: What about the ES [34] of the same molecule?
Answer: 0.469

Question: What about the NES [34] of the same molecule?
Answer: 1.177

Question: And the NES (KEGG_CELL_CYCLE, FDR q-val 0.828)?
Answer: −0.995

Question: And the NES (KEGG_CITRATE_CYCLE_TCA_CYCLE, FDR q-val 0.422)?
Answer: −1.416

Question: What about the ES [35] of the same molecule?
Answer: 0.469

Question: What about the NES [35] of the same molecule?
Answer: 1.166

Question: And the NES (KEGG_DNA_REPLICATION, FDR q-val 0.844)?
Answer: −0.919

Question: And the NES (KEGG_ERBB_SIGNALING_PATHWAY, FDR q-val 0.821)?
Answer: 1.410

Question: What about the ES [36] of the same molecule?
Answer: 0.593

Question: What about the NES [36] of the same molecule?
Answer: 1.623

Question: What about the ES [37] of the same molecule?
Answer: 0.386

Question: What about the NES [37] of the same molecule?
Answer: 1.041

Question: What about the ES [38] of the same molecule?
Answer: 0.572

Question: And the NES [38]?
Answer: 1.376

Question: And the ES [39]?
Answer: 0.394

Question: And the NES [39]?
Answer: 1.086

Question: And the ES [40]?
Answer: 0.520

Question: And the NES [40]?
Answer: 1.277

Question: What about the ES [41] of the same molecule?
Answer: 0.352

Question: And the NES [41]?
Answer: 1.077

Question: What about the ES [42] of the same molecule?
Answer: 0.381

Question: And the NES [42]?
Answer: 1.007

Question: And the ES [43]?
Answer: 0.534

Question: And the NES [43]?
Answer: 1.369

Question: And the ES [44]?
Answer: 0.415

Question: What about the NES [44] of the same molecule?
Answer: 1.092

Question: And the ES [45]?
Answer: 0.469

Question: And the NES [45]?
Answer: 1.271

Question: What about the NES (KEGG_N_GLYCAN_BIOSYNTHESIS, FDR q-val 0.658) of the same molecule?
Answer: −1.160

Question: And the NES (KEGG_PARKINSONS_DISEASE, FDR q-val 0.702)?
Answer: −1.180

Question: And the ES [46]?
Answer: 0.324

Question: And the NES [46]?
Answer: 1.074

Question: What about the ES [47] of the same molecule?
Answer: 0.459

Question: What about the NES [47] of the same molecule?
Answer: 1.302

Question: And the ES [48]?
Answer: 0.424

Question: What about the NES [48] of the same molecule?
Answer: 1.079

Question: What about the NES (KEGG_PROTEASOME, FDR q-val 0.605) of the same molecule?
Answer: −1.425

Question: And the NES (KEGG_PROTEIN_EXPORT, FDR q-val 0.625)?
Answer: −1.116

Question: And the ES [49]?
Answer: 0.331

Question: What about the NES [49] of the same molecule?
Answer: 1.023

Question: What about the NES (KEGG_RIBOSOME, FDR q-val 0.003) of the same molecule?
Answer: −2.132

Question: And the NES (KEGG_RNA_DEGRADATION, FDR q-val 0.672)?
Answer: −1.228

Question: What about the NES (KEGG_SPLICEOSOME, FDR q-val 0.541) of the same molecule?
Answer: −1.319

Question: What about the NES (KEGG_VIBRIO_CHOLERAE_INFECTION, FDR q-val 0.754) of the same molecule?
Answer: −1.044

Question: What about the ES [50] of the same molecule?
Answer: 0.497

Question: And the NES [50]?
Answer: 1.292
